Source: EP0068408A1 (priority 1981, dated 1983)
Values after ≈ are worked out from the molar mass of the structure shown. Like-named read-outs stand apart in the source and are kept apart here.

Columns and labels:
[1] = Acute toxicity in mice (LD50); format: in vivo; settings: ddY male mice, suspended in 5% Arabic gum solution, observed for 7 days; for LD50 at 168 h: mouse, in vivo
Protocol: Experimental Example 7: Acute Toxicity in Mice
Each compound of the invention was suspended in 5% Arabic gum solution and given orally (p.o.) or intraperitoneally (i.p.) to groups of ten ddY male mice weighed from 24 to 26 g at the dosage volume of 10 ml/kg. […] LD50 was determined according to the method of Wilcoxon and Litchfield.

influenza A0 virus = assay: animal or person; format: in vivo, mice; settings: for responders at 300 mg/kg / responders at 100 mg/kg: Mus musculus, 360 h, twice a day for 14 days, survivors at 15th day, read-out: Survival rate; for responders at 300 mg/kg: oral; for responders at 100 mg/kg: ip, intraperitoneal
Influenza A1 = assay: microbe, parasite or virus in culture; format: cell-based
ECHO = assay: microbe, parasite or virus in culture; format: cell-based
Rhino = assay: microbe, parasite or virus in culture; format: cell-based
Influenza A0 = assay: microbe, parasite or virus in culture; format: cell-based; settings: virus A = Influenza A0, MDCK, Vero and HEL cells, 2 or 3 days
Coxsackie Type B5 = assay: microbe, parasite or virus in culture; format: cell-based; settings: virus G = Coxsackie Type B5
Parainfluenza Type 3 = assay: microbe, parasite or virus in culture; format: cell-based; settings: virus E = Parainfluenza Type 3
Influenza B = assay: microbe, parasite or virus in culture; format: cell-based
influenza virus A/WSN = assay: animal or person; format: in vivo, mice; settings: in Mus musculus, 360 h, read-out: Survival rate
[2] = ip, i.p., read-out: LD50 value, Intraperitoneal administration
[3] = po, p.o., read-out: LD50 value, Oral administration

For CNS(=O)(=O)c1cc(C(=O)O)ccc1Cl [Compound 1], the “LD50 value, Intraperitoneal administration” value ([1]; i.p.) was >1,000 mg/kg and the “LD50 value, Oral administration” value ([1]; p.o.) was >3,000 mg/kg.

For CCNS(=O)(=O)c1cc(C(=O)O)ccc1Cl [Compound 2], the “LD50 value, Intraperitoneal administration” value ([1]; i.p.) was >1,000 mg/kg and the “LD50 value, Oral administration” value ([1]; p.o.) was >3,000 mg/kg.

For CN(C)S(=O)(=O)c1cc(C(=O)O)ccc1Cl [Compound 3], the “LD50 value, Intraperitoneal administration” value ([1]; i.p.) was >1,000 mg/kg and the “LD50 value, Oral administration” value ([1]; p.o.) was >3,000 mg/kg.

CONS(=O)(=O)c1cc(C(=O)O)ccc1Cl [Compound 4] gave a responders at 300 mg/kg (influenza A0 virus) of 40%, a responders at 100 mg/kg (influenza A0 virus) of 50% and an MIC (Influenza A1) of 300 µg/mL (≈ 1130 µM). The MIC (ECHO) was 300 µg/mL (≈ 1130 µM), the MIC (Rhino) was 300 µg/mL (≈ 1130 µM) and the MIC (Influenza A0) was 30 µg/mL (≈ 113 µM). For the same molecule, the MIC (Coxsackie Type B5) was 300 µg/mL (≈ 1130 µM), the LD50 at 168 h [1, 2] was over 1000 mg/kg and the LD50 at 168 h [1, 3] was over 3000 mg/kg. For the same molecule, the MIC (Parainfluenza Type 3) was 300 µg/mL (≈ 1130 µM) and the MIC (Influenza B) was 100 µg/mL (≈ 376 µM).

Work on O=C(O)c1ccc(Cl)c(S(=O)(=O)NCCO)c1 [Compound 5] yielded a responders at 300 mg/kg (influenza A0 virus) of 50%, a responders at 100 mg/kg (influenza A0 virus) of 40% and an MIC (Influenza A1) of 300 µg/mL (≈ 1070 µM). The MIC (ECHO) was 300 µg/mL (≈ 1070 µM), the MIC (Rhino) was 300 µg/mL (≈ 1070 µM) and the MIC (Influenza A0) was 30 µg/mL (≈ 107 µM). For the same molecule, the MIC (Coxsackie Type B5) was 300 µg/mL (≈ 1070 µM), the LD50 at 168 h [1, 2] was over 1000 mg/kg and the LD50 at 168 h [1, 3] was over 3000 mg/kg. For the same molecule, the MIC (Parainfluenza Type 3) was 100 µg/mL (≈ 358 µM) and the MIC (Influenza B) was 300 µg/mL (≈ 1070 µM).

For CN(CCO)S(=O)(=O)c1cc(C(=O)O)ccc1Cl [Compound 6], the responders at 300 mg/kg (influenza A0 virus) was 40%, the responders at 100 mg/kg (influenza A0 virus) was 60% and the MIC (Influenza A1) was 300 µg/mL (≈ 1020 µM). The MIC (ECHO) was 100 µg/mL (≈ 340 µM), the MIC (Rhino) was 300 µg/mL (≈ 1020 µM) and the MIC (Influenza A0) was 30 µg/mL (≈ 102 µM). For the same molecule, the MIC (Coxsackie Type B5) was 300 µg/mL (≈ 1020 µM), the LD50 at 168 h [1, 2] was over 1000 mg/kg and the LD50 at 168 h [1, 3] was over 3000 mg/kg. The MIC (Parainfluenza Type 3) was 300 µg/mL (≈ 1020 µM) and the MIC (Influenza B) was 300 µg/mL (≈ 1020 µM).

For CC(C)NS(=O)(=O)c1cc(C(=O)O)ccc1Cl [Compound 8], the “LD50 value, Intraperitoneal administration” value ([1]; i.p.) was >1,000 mg/kg and the “LD50 value, Oral administration” value ([1]; p.o.) was >3,000 mg/kg.

In the case of O=C(O)c1ccc(Cl)c(S(=O)(=O)Nc2ccccc2)c1 [Compound 9], the “LD50 value, Oral administration” value ([1]; p.o.) is reported as >3,000 mg/kg.

In the case of O=C(O)c1ccc(Cl)c(S(=O)(=O)N2CCOCC2)c1 [Compound 11], the “LD50 value, Intraperitoneal administration” value ([1]; i.p.) is reported as >1,000 mg/kg and the “LD50 value, Oral administration” value ([1]; p.o.) is reported as >3,000 mg/kg.

In the case of NS(=O)(=O)c1cc(C(=O)O)c(Cl)cc1Cl [Compound 19], the “protective action against death due to the infection” value (influenza A0 virus; result in words, Tables 3 and 4) is reported as “extremely excellent activity”, the “LD50 value, Intraperitoneal administration” value ([1]; i.p.) is reported as >1,000 mg/kg and the “LD50 value, Oral administration” value ([1]; p.o.) is reported as >3,000 mg/kg.

For COC(=O)c1ccc(F)c(S(N)(=O)=O)c1 [Compound 28], the “LD50 value, Intraperitoneal administration” value ([1]; i.p.) was >1,000 mg/kg and the “LD50 value, Oral administration” value ([1]; p.o.) was >3,000 mg/kg.

CCOC(=O)c1cc(S(N)(=O)=O)c(Cl)cc1Cl [Compound 32] showed a responders at 100 mg/kg (influenza virus A/WSN; po) of 40%, a responders at 300 mg/kg (influenza virus A/WSN; po) of 50% and an LD50 at 168 h [1, 2] of over 1000 mg/kg. It also gave an LD50 at 168 h [1, 3] of over 3000 mg/kg.

Work on CC(C)OC(=O)c1cc(S(N)(=O)=O)c(Cl)cc1Cl [Compound 34] yielded a responders at 30 mg/kg (influenza virus A/WSN; ip) of 30%, a responders at 100 mg/kg (influenza virus A/WSN; ip) of 40% and an LD50 at 168 h [1, 2] of over 1000 mg/kg. The LD50 at 168 h [1, 3] was over 3000 mg/kg.

For CCC(C)OC(=O)c1cc(S(N)(=O)=O)c(Cl)cc1Cl (stereo not shown) [Compound 36], the responders at 30 mg/kg (influenza virus A/WSN; ip) was 30%, the responders at 100 mg/kg (influenza virus A/WSN; ip) was 40% and the LD50 at 168 h [1, 2] was over 1000 mg/kg. It also gave an LD50 at 168 h [1, 3] of over 3000 mg/kg.

NS(=O)(=O)c1cc(C(=O)OC2CCCCC2)c(Cl)cc1Cl [Compound 38] gave a responders at 30 mg/kg (influenza virus A/WSN; ip) of 30%, a responders at 100 mg/kg (influenza virus A/WSN; ip) of 40% and an LD50 at 168 h [1, 2] of over 1000 mg/kg. The LD50 at 168 h [1, 3] was over 3000 mg/kg.

In the case of NS(=O)(=O)c1cc(C(=O)OCc2ccccc2)c(Cl)cc1Cl [Compound 39], the responders at 100 mg/kg (influenza virus A/WSN; po) is reported as 30%, the responders at 300 mg/kg (influenza virus A/WSN; po) is reported as 40% and the LD50 at 168 h [1, 2] is reported as over 1000 mg/kg. The LD50 at 168 h [1, 3] was over 3000 mg/kg.

In the case of CCOC(=O)c1cc(S(N)(=O)=O)c(F)cc1Cl [Compound 42], the responders at 100 mg/kg (influenza virus A/WSN; po) is reported as 40%, the responders at 300 mg/kg (influenza virus A/WSN; po) is reported as 50% and the LD50 at 168 h [1, 2] is reported as over 1000 mg/kg. For the same molecule, the LD50 at 168 h [1, 3] was over 3000 mg/kg.
